The source made the active and inactive calls. The calls are words filed in the database; no cut-off is given here.
Assays:
SiHa [1] = test: Inhibition of VEGFR in human SiHa cells assessed as decrease in intracellular VEGFR protein expression at 10 uM incubated for 24 hrs under hypoxic condition by immunofluorescence staining based analysis; type: cell-based
[2] = Inhibition of PI3K/AKT/mTOR signalling pathway in human SiHa cells assessed as downregulation of AKT protein expression at 0.3 to 10 uM incubated for 24 hrs under hypoxic condition by Western blotting analysis; type: cell-based; conditions: dose 0.3-10 µM
[3] = target: Hypoxia-inducible factor 1-alpha (Homo sapiens) (UniProt Q16665); test: Inhibition of HIF-1alpha in human SiHa cells assessed as downregulation of HIF-1alpha protein expression incubated upto 60 mins under hypoxic condition in presence of CHX by Western blotting analysis; type: cell-based
Hypoxia-inducible factor 1-alpha (Homo sapiens), sequence (Q16665 whole entry, looked up): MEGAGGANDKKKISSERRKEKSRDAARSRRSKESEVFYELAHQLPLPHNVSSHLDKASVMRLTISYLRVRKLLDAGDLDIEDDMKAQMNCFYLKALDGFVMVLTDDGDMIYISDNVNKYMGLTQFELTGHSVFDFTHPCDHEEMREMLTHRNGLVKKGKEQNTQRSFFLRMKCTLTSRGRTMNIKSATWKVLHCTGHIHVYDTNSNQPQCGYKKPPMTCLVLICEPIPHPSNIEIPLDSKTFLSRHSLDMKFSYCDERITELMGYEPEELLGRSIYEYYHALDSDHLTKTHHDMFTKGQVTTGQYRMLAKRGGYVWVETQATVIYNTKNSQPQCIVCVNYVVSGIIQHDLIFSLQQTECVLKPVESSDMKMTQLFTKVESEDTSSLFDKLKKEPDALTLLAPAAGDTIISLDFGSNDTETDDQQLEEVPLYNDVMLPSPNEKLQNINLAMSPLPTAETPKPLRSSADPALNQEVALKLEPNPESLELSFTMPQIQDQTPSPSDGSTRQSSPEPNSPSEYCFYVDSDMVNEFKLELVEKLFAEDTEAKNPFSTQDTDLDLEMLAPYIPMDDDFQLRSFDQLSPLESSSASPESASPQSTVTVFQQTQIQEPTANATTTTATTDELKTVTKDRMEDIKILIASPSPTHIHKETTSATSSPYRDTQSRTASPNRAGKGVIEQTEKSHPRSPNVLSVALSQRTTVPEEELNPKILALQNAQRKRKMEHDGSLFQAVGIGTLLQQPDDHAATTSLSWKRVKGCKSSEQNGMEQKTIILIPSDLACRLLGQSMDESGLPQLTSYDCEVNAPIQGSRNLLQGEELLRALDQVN

HUVEC [4] = test: Inhibition of cell migration in human HUVEC cells at 1 to 10 uM under hypoxic condition by microscopic analysis; type: functional, cell-based; conditions: dose 1-10 µM, TDE = time-dependent effect
SiHa [5] = test: Inhibition of HIF-1beta in human SiHa cells assessed as downregulation of HIF-1beta protein expression incubated upto 60 mins under hypoxic condition in presence of MG-132 by Western blotting analysis; type: cell-based
SiHa [6] = test: Antitumor activity against human SiHa cells xenografted in Balb/c mouse assessed as reduction in tumor volume at 30 mg/kg,ip administration measured after 22 days; type: functional, organism-based; conditions: time 22.0 day
SiHa [7] = test: Inhibition of VEGFR in human SiHa cells incubated for 24 hrs under hypoxic condition by ELISA; type: cell-based
SiHa [8] = test: Antitumor activity against human SiHa cells xenografted in Balb/c mouse assessed as reduction in VEGF expression in tumor at 30 mg/kg,ip administration measured after 22 days by immunohistochemical staining based analysis; type: functional, organism-based; conditions: time 22.0 day
[9] = Toxicity in Balb/c mouse assessed as change in animal fur at 50 mg/kg,ip administration for 1 week; type: organism-based; conditions: in vivo, 168 h, time 1 weeks
HUVEC [10] = test: Inhibition of cell migration in human HUVEC cells at 10 uM incubated for 48 hrs under hypoxic condition by microscopic analysis relative to PAB; type: functional
[11] = target: Hypoxia-inducible factor 1-alpha (Homo sapiens) (UniProt Q16665); test: Inhibition of HIF-1alpha in human SiHa cells assessed as downregulation of HIF-1alpha protein expression incubated upto 60 mins under hypoxic condition in presence of MG-132 by Western blotting analysis; type: cell-based
[12] = Inhibition of PI3K/AKT/mTOR signalling pathway in human SiHa cells assessed as downregulation of PI3K protein expression at 0.3 to 10 uM incubated for 24 hrs under hypoxic condition by Western blotting analysis; type: cell-based; conditions: dose 0.3-10 µM
SiHa [13] = test: Inhibition of hypoxia-induced HIF-1alpha accumulation in human SiHa cells at 0.3 to 10 uM incubated for 24 hrs under hypoxic condition by Western blotting analysis; type: functional, cell-based; conditions: dose 0.3-10 µM
HUVEC [14] = test: Inhibition of cell migration in human HUVEC cells incubated upto 48 hrs under hypoxic condition by microscopic analysis; type: functional, cell-based
[15] = Inhibition of PI3K/AKT/mTOR signalling pathway in human SiHa cells assessed as downregulation of mTOR protein expression at 0.3 to 10 uM incubated for 24 hrs under hypoxic condition by Western blotting analysis; type: cell-based; conditions: dose 0.3-10 µM
[16] = Toxicity in Balb/c mouse xenografted with human SiHa cells assessed as reduction in body weight at 30 mg/kg,ip administration measured after 22 days; type: organism-based; conditions: in vivo, 528 h, time 22 day
SiHa [17] = test: Antitumor activity against human SiHa cells xenografted in Balb/c mouse assessed as reduction in tumor weight at 30 mg/kg,ip administration measured after 22 days; type: functional, organism-based; conditions: time 22.0 day
HUVEC [18] = test: Inhibition of cell migration in human HUVEC cells at 3 uM incubated for 48 hrs under hypoxic condition by microscopic analysis relative to PAB; type: functional
SiHa [19] = test: Antitumor activity against human SiHa cells xenografted in Balb/c mouse assessed as reduction in HIF-1alpha expression in tumor at 30 mg/kg,ip administration measured after 22 days by immunohistochemical staining based analysis; type: functional, organism-based; conditions: time 22.0 day
[20] = Inhibition of PI3K/AKT/mTOR signalling pathway in human SiHa cells assessed as downregulation of p38 protein expression at 10 uM incubated for 24 hrs under hypoxic condition by Western blotting analysis; type: cell-based
[21] = Toxicity in Balb/c mouse assessed as fatality at 50 mg/kg,ip administration for 1 week; type: organism-based; conditions: in vivo, 168 h, time 1 weeks
[22] = Inhibition of VEGFR mediated endocytosis in human SiHa cells incubated for 24 hrs under hypoxic condition by ELISA; type: cell-based
HUVEC [23] = test: Inhibition of cell invasion in human HUVEC cells at 1 to 10 uM incubated for 48 hrs under hypoxic condition by crystal violet staining based microscopic analysis relative to PAB; type: functional; conditions: dose 1-10 µM
SiHa [24] = test: Cytotoxicity against human SiHa cells assessed as inhibition of cell growth incubated for 24 hrs under normoxic condition by MTT assay; type: functional, cell-based
[25] = Inhibition of PI3K/AKT/mTOR signalling pathway in human SiHa cells assessed as downregulation of ERK1/2 phosphorylation at 10 uM incubated for 24 hrs under hypoxic condition by Western blotting analysis; type: cell-based
SiHa [26] = test: Inhibition of hypoxia-induced HIF-1alpha accumulation in human SiHa cells assessed as decrease in nuclear HIF-1alpha level at 10 uM incubated for 24 hrs under hypoxic condition by immunofluorescence staining based analysis; type: functional, cell-based
[27] = Inhibition of PI3K/AKT/mTOR signalling pathway in human SiHa cells assessed as downregulation of JNK protein expression at 10 uM incubated for 24 hrs under hypoxic condition by Western blotting analysis; type: cell-based
[28] = Inhibition of PI3K/AKT/mTOR signalling pathway in human SiHa cells assessed as downregulation of ERK1/2 protein expression at 10 uM incubated for 24 hrs under hypoxic condition by Western blotting analysis; type: cell-based
SiHa [29] = test: Inhibition of hypoxia-induced HIF-1beta accumulation in human SiHa cells at 0.3 to 10 uM incubated for 24 hrs under hypoxic condition by Western blotting analysis; type: functional, cell-based; conditions: dose 0.3-10 µM
SiHa [30] = test: Antitumor activity against human SiHa cells xenografted in Balb/c mouse assessed as reduction in tumor growth at 30 mg/kg,ip administration measured after 22 days; type: functional, organism-based; conditions: time 22.0 day
[31] = target: Hypoxia-inducible factor 1-alpha (Homo sapiens) (UniProt Q16665); test: Inhibition of HIF-1alpha in human SiHa cells assessed as downregulation of HIF-1alpha protein expression incubated upto 60 mins under hypoxic condition by Western blotting analysis; type: cell-based
[32] = Inhibition of PI3K/AKT/mTOR signalling pathway in human SiHa cells assessed as downregulation of p38 phosphorylation at 10 uM incubated for 24 hrs under hypoxic condition by Western blotting analysis; type: cell-based
HUVEC [33] = test: Antiangiogenic activity against human HUVEC cells assessed as inhibition of blood vessel formation at 1 to 10 uM incubated for 4 hrs under hypoxic condition by fluorescence microscopic analysis; type: functional, cell-based; conditions: dose 1-10 µM
[34] = Inhibition of PI3K/AKT/mTOR signalling pathway in human SiHa cells assessed as downregulation of JNK phosphorylation at 10 uM incubated for 24 hrs under hypoxic condition by Western blotting analysis; type: cell-based
HUVEC [35] = test: Inhibition of cell migration in human HUVEC cells at 1 uM incubated for 48 hrs under hypoxic condition by microscopic analysis relative to PAB; type: functional
MDA-MB-231 [36] = test: Cytotoxicity against human MDA-MB-231 cells assessed as fold increase in inhibition of cell growth incubated for 96 hrs under hypoxic condition by MTT assay relative to doxorubicin; type: functional
MDA-MB-231 [37] = test: Cytotoxicity against human MDA-MB-231 cells assessed as fold increase in inhibition of cell growth incubated for 96 hrs under hypoxic condition by MTT assay relative to 4-hydroxycoumarin; type: functional
MDA-MB-231 [38] = test: Cytotoxicity against human MDA-MB-231 cells assessed as inhibition of cell growth incubated for 96 hrs under hypoxic condition by MTT assay; type: functional, cell-based; conditions: MDA-MB-231, 96 h

COC(=O)C1=CC[C@@]23CC[C@@H]([C@@](C)(/C=C/C=C(\C)C(=O)OCC(=O)NCc4cn(-c5ccc(Cl)cc5)nn4)OC2=O)[C@@]3(OC(C)=O)CC1
inhibition (SiHa [1]): Active | inhibition [2]: Active | inhibition [3]: inactive | inhibition (HUVEC [4]): Tde | inhibition (SiHa [5]): inactive | Activity (SiHa [6]): Active | inhibition (SiHa [7]): Dose-Dependent Effect | Activity (SiHa [8]): Active | Activity [9]: Non-Toxic | inhibition at 10 µM (HUVEC [10]): 88.8% | inhibition [11]: Active | inhibition [12]: Active | inhibition (SiHa [13]): Active | inhibition (HUVEC [14]): Dose-Dependent Effect | inhibition [15]: Active | Activity [16]: Non-Toxic | Activity (SiHa [17]): Active | inhibition at 3 µM (HUVEC [18]): 66.1% | Activity (SiHa [19]): Active | inhibition [20]: inactive | Activity [21]: Non-Toxic | IC50 [22]: 680 nM | inhibition (HUVEC [23]): Active | IC50 (SiHa [24]): > 30 µM | inhibition [25]: Active | inhibition (SiHa [26]): Active | inhibition [27]: inactive | inhibition [28]: inactive | inhibition (SiHa [29]): Active | Activity (SiHa [30]): Active | inhibition [31]: Active | inhibition [32]: Active | Activity (HUVEC [33]): Active | inhibition [34]: Active | inhibition at 1 µM (HUVEC [35]): 35.6%

COc1ccc(NC(=O)c2ccc(-n3cc(COc4cc(=O)oc5ccccc45)nn3)cc2)cc1OC
fold change (FC) (MDA-MB-231 [36]): 20 | fold change (FC) (MDA-MB-231 [37]): 5000

O=c1cc(O)c2ccccc2o1 [4-HYDROXYCOUMARINS]
IC50 (MDA-MB-231 [38]): > 100 µM

From ChEMBL document CHEMBL6071153, “Design, synthesis, and evaluation of antitumor activity in Pseudolaric acid B Azole derivatives: Novel and potent angiogenesis inhibitor via regulation of the PI3K/AKT and MAPK mediated HIF-1/VEGF signaling pathway” (Eur J Med Chem, 2024)
